What was measured:
[1] = test system: human peripheral blood lymphocytes (PBMCs); experiment: hPBMC assay: IFN-γ and IFN-α production by human PBMCs (ELISA); format: cell-based
[2] = test system: plasmacytoind dendritic cells (PDCs) of human PBMCs; experiment: Intracellular staining and FACS analysis of IFN-α production from PDCs; format: cell-based; conditions: double-staining cells as percentage of total PBMCs, 20 μg/mL oligonucleotide, 100 μg/mL PMXB, six hours
Experimental: Intracellular staining assays and FACS analysis were used to examine IFN-α production from the plasmacytoind dendritic cells (PDCs) of human PBMCs. […] For these assays, the IMC or -ISS and the polymyxin were added separately to the PBMC cell culture which contained human serum albumin. […] After the six hours, the cells were stained with a fluorescently labeled PDC marker, anti-BCDA-2 labeled with FITC, and with anti-IFN-α labeled with PE. FACS analysis of the labeled cells was performed.

[3] = test system: K562 cells; experiment: NK cell lytic activity of stimulated PBMCs against 51Cr-loaded K562 cells; format: cell-based, human; conditions: 10 μg/mL IMC, 100 μg/mL PMXB, 48 hours
Experimental: IMC particulate formulations were tested for NK cell stimulatory activity. PBMCs from two donors were stimulated for 48 hours with 10 μg/mL IMC (“+ISS”) 5′-[…]-3′ (SEQ ID NO:1) with or without 100 μg/mL PMXB. The PBMCs were then assayed for lytic activity against K562 cells loaded with ^51Cr as target cells. For controls, K562 cells were cultured alone, K562 cells were lysed with Triton and K562 cells were stimulated with untreated PBMC cells. Determination of ^51CR released into culture media was used to measure the extent of target cell lysis. The presence of PMXB increased the NK cell lytic activity stimulated by the IMC alone.

[4] = test system: mouse lung cells; experiment: Gene modulation in mouse lung after intranasal instillation (TAQMAN, relative cycle thresholds; Table 18); format: in vivo; design: Relative Cycle Thresholds (CTs), IFN-α2 / Relative Cycle Thresholds (CTs), BCA-1 / Relative Cycle Thresholds (CTs), IP-10 / Relative Cycle Thresholds (CTs), MIP-1b / Relative Cycle Thresholds (CTs), 12/15-lipoxg: reference not given here; conditions: 6 hours after intranasal instillation
Experimental: Modulation of a variety of genes in response to immunomodulatory formulations was measured in mouse lung cells.
Particulate formulations were produced by first preparing either a 1 mg/mL +ISS, 0.4% TWEEN® 85, 0.4% oleate solution or a 20 mg/mL HSA solution, then making that solution 5 mg/ml in PMXB. The formulations were allowed to stand for 24 hours at room temperature, then dialyzed using a 10 kDa membrane. Particulate formulations and +ISS alone (50 μL dose) were administered by intranasal instillation to lightly anesthetized mice (5 mice per group). Animals were sacrificed 6 hours after administration, lung tissue was surgically removed, and cell suspensions were made by homogenization of the lung tissue. cDNA was synthesized from RNA isolated from the cell suspensions, and RNA was quantitated using TAQMAN® Technology. The particulate formulations induced significant increases in the majority of the genes tested.

[5] = Donor 198, no Time given, 20 μg/ml oligonucleotide
[6] = Donor 199, no Time given, 20 μg/ml oligonucleotide
[7] = Donor 28212, Controls, 20 μg/ml oligonucleotide, 100 μg/ml polymyxin
[8] = Donor 28213, Controls, 20 μg/ml oligonucleotide, 100 μg/ml polymyxin
[9] = Donor 28232, no Time given, 20 μg/ml oligonucleotide, 100 μg/ml polymyxin
[10] = Donor 28233, no Time given, 20 μg/ml oligonucleotide, 100 μg/ml polymyxin
[11] = Donor # 9, 20 μg/ml oligonucleotide, 100 μg/ml PMXB, 24 hours
[12] = Donor # 37, 20 μg/ml oligonucleotide, 100 μg/ml PMXB, 24 hours
[13] = Donor # 86, 20 μg/ml oligonucleotide, 100 μg/ml PMXB, 24 hours
[14] = Donor # 87, 20 μg/ml oligonucleotide, 100 μg/ml PMXB, 24 hours
[15] = Donor # 88, 20 μg/ml oligonucleotide, 100 μg/ml PMXB, 24 hours
[16] = Donor # 89, 20 μg/ml oligonucleotide, 100 μg/ml PMXB, 24 hours
[17] = Donor # 90, 20 μg/ml oligonucleotide, 100 μg/ml PMXB, 24 hours
[18] = Donor # 91, 20 μg/ml oligonucleotide, 100 μg/ml PMXB, 24 hours
[19] = Donor # 94, 20 μg/ml oligonucleotide, 100 μg/ml PMXB, 24 hours
[20] = Donor # 95, 20 μg/ml oligonucleotide, 100 μg/ml PMXB, 24 hours
[21] = Mean (Table 4), Controls, 20 μg/ml oligonucleotide, 100 μg/ml polymyxin
[22] = Mean (Table 5), no Time given, 20 μg/ml oligonucleotide
[23] = Mean (Table 6), no Time given, 20 μg/ml oligonucleotide, 100 μg/ml polymyxin
[24] = Mean of donors (Table 2), 20 μg/ml oligonucleotide, 100 μg/ml PMXB, 24 hours
[25] = Table 3, Donor 1, PMXB 100 μg/ml, AMTB 10 μg/ml, serum containing medium
[26] = Table 3, Donor 2, PMXB 100 μg/ml, AMTB 10 μg/ml, serum containing medium
[27] = Table 3, Mean, PMXB 100 μg/ml, AMTB 10 μg/ml, serum containing medium
[28] = Table 9, Mean, 20 μg/ml oligonucleotide, 100 μg/ml polymyxin
[29] = Table 9, donor 149, 20 μg/ml oligonucleotide, 100 μg/ml polymyxin
[30] = Table 9, donor 208, 20 μg/ml oligonucleotide, 100 μg/ml polymyxin
[31] = Table 10, donor 1, 20 μg/ml oligonucleotide, 100 μg/ml polymyxin derivative added separately, 24 hours
[32] = Table 10, donor 2, 20 μg/ml oligonucleotide, 100 μg/ml polymyxin derivative added separately, 24 hours
[33] = Table 10, donor 3, 20 μg/ml oligonucleotide, 100 μg/ml polymyxin derivative added separately, 24 hours
[34] = Table 10, donor 4, 20 μg/ml oligonucleotide, 100 μg/ml polymyxin derivative added separately, 24 hours
[35] = Table 10, donor 5, 20 μg/ml oligonucleotide, 100 μg/ml polymyxin derivative added separately, 24 hours
[36] = Table 10, donor 6, 20 μg/ml oligonucleotide, 100 μg/ml polymyxin derivative added separately, 24 hours
[37] = Table 10, mean of 6 donors, 20 μg/ml oligonucleotide, 100 μg/ml polymyxin derivative added separately, 24 hours
[38] = Effector:Target ratio 12.5:1, donor 2

5′-TGACTGTGAACGTTCGAGATGA-3′ [+ISS]
IFN-α [1, 5]: 224 pg/mL
IFN-γ [1, 5]: 10 pg/mL
IFN-α [1, 6]: 277 pg/mL
IFN-γ [1, 6]: 167 pg/mL
IFN-α [1, 7]: 135 pg/mL
IFN-γ [1, 7]: 5 pg/mL
IFN-α [1, 8]: 109 pg/mL
IFN-γ [1, 8]: 17 pg/mL
IFN-Υ [1, 9]: 276 pg/mL
IFN-α [1, 9]: 9 pg/mL
IFN-Υ [1, 10]: 20 pg/mL
IFN-α [1, 10]: 103 pg/mL
IFN-α [1, 11]: 131 pg/mL
IFN-γ [1, 11]: 20 pg/mL
IFN-γ ([1]; Donor # 20, 20 μg/ml oligonucleotide, 100 μg/ml PMXB, 24 hours): 291 pg/mL
IFN-α [1, 12]: 70 pg/mL
IFN-γ [1, 12]: 15 pg/mL
IFN-γ ([1]; Donor # 75, 20 μg/ml oligonucleotide, 100 μg/ml PMXB, 24 hours): 22 pg/mL
IFN-α [1, 13]: 358 pg/mL
IFN-γ [1, 13]: 182 pg/mL
IFN-α [1, 14]: 212 pg/mL
IFN-γ [1, 14]: 341 pg/mL
IFN-α [1, 15]: 264 pg/mL
IFN-γ [1, 15]: 367 pg/mL
IFN-α [1, 16]: 207 pg/mL
IFN-γ [1, 16]: 100 pg/mL
IFN-α [1, 17]: 119 pg/mL
IFN-γ [1, 17]: 13 pg/mL
IFN-α [1, 18]: 0 pg/mL
IFN-γ [1, 18]: 27 pg/mL
IFN-α [1, 19]: 274 pg/mL
IFN-γ [1, 19]: 30 pg/mL
IFN-α [1, 20]: 26 pg/mL
IFN-γ [1, 20]: 6 pg/mL
IFN-γ ([1]; Donor # 96, 20 μg/ml oligonucleotide, 100 μg/ml PMXB, 24 hours): 49 pg/mL
IFN-γ ([1]; Donor # 97, 20 μg/ml oligonucleotide, 100 μg/ml PMXB, 24 hours): 23 pg/mL
IFN-α [1, 21]: 122 pg/mL
IFN-γ [1, 21]: 11 pg/mL
IFN-α [1, 22]: 250 pg/mL
IFN-γ [1, 22]: 88 pg/mL
IFN-Υ [1, 23]: 148 pg/mL
IFN-α [1, 23]: 56 pg/mL
IFN-α [1, 24]: 166 pg/mL
IFN-γ [1, 24]: 106 pg/mL
IFN-α [1, 25]: 11 pg/mL
IFN-γ [1, 25]: 29 pg/mL
IFN-α [1, 26]: 2 pg/mL
IFN-γ [1, 26]: 0 pg/mL
IFN-α [1, 27]: 6 pg/mL
IFN-γ [1, 27]: 15 pg/mL
IFN-Υ [1, 28]: 76 pg/mL
IFN-α [1, 28]: 41 pg/mL
IFN-Υ [1, 29]: 78 pg/mL
IFN-α [1, 29]: 59 pg/mL
IFN-Υ ([1]; Table 9, donor 206, 20 μg/ml oligonucleotide, 100 μg/ml polymyxin): 5 pg/mL
IFN-Υ [1, 30]: 146 pg/mL
IFN-α [1, 30]: 32 pg/mL
IFN-α ([1]; Table 9, donor 209, 20 μg/ml oligonucleotide, 100 μg/ml polymyxin): 32 pg/mL
IFN-α [1, 31]: 263 pg/mL
IFN-γ [1, 31]: 13 pg/mL
IFN-α [1, 32]: 225 pg/mL
IFN-γ [1, 32]: 3 pg/mL
IFN-α [1, 33]: 52 pg/mL
IFN-γ [1, 33]: 2 pg/mL
IFN-α [1, 34]: 52 pg/mL
IFN-γ [1, 34]: 2 pg/mL
IFN-α [1, 35]: 218 pg/mL
IFN-γ [1, 35]: 99 pg/mL
IFN-α [1, 36]: 26 pg/mL
IFN-γ [1, 36]: 14 pg/mL
IFN-α [1, 37]: 139 pg/mL
IFN-γ [1, 37]: 22 pg/mL
BCDA-2/IFN-α d.p. % ([2]; donor 1): 0.01%
BCDA-2/IFN-α d.p. % ([2]; donor 2): 0.03%
BCDA-2/IFN-α d.p. % ([2]; mean): 0.02%
51Cr released from K562 target cells, cpm1 ([3]; Effector:Target ratio 6:1, donor 1): 6935 cpm
51Cr released from K562 target cells, cpm2 [3, 38]: 8370 cpm
51Cr released from K562 target cells, mean [3, 38]: 8162 cpm
51Cr released from K562 target cells, cpm3 ([3]; Effector:Target ratio 25:1, donor 1): 8048 cpm
Relative Cycle Thresholds (CTs), 12/15-lipoxg ([4]; gene 12/15-lipoxg): 65
Relative Cycle Thresholds (CTs), BCA-1 ([4]; gene BCA-1): 5026
Relative Cycle Thresholds (CTs), CD80 ([4]; gene CD80): 205
Relative Cycle Thresholds (CTs), CD86 ([4]; gene CD86): 103
Relative Cycle Thresholds (CTs), COX-1 ([4]; gene COX-1): 2145
Relative Cycle Thresholds (CTs), COX-2 ([4]; gene COX-2): 446
Relative Cycle Thresholds (CTs), Eotaxin ([4]; gene Eotaxin): 273
Relative Cycle Thresholds (CTs), G-CSF ([4]; gene G-CSF): 92
Relative Cycle Thresholds (CTs), IFN-α2 ([4]; gene IFN-α2): 3
Relative Cycle Thresholds (CTs), IFN-γ ([4]; gene IFN-γ): 25
Relative Cycle Thresholds (CTs), IL-1a ([4]; gene IL-1a): 7523
Relative Cycle Thresholds (CTs), IL-1b ([4]; gene IL-1b): 1643
Relative Cycle Thresholds (CTs), IL-6 ([4]; gene IL-6): 755
Relative Cycle Thresholds (CTs), IL-10 ([4]; gene IL-10): 4
Relative Cycle Thresholds (CTs), IL-12p40 ([4]; gene IL-12p40): 6
Relative Cycle Thresholds (CTs), IL-23 ([4]; gene IL-23): 266
Relative Cycle Thresholds (CTs), IP-10 ([4]; gene IP-10): 23436
Relative Cycle Thresholds (CTs), LPTN ([4]; gene LPTN): 976
Relative Cycle Thresholds (CTs), MCP-1 ([4]; gene MCP-1): 5265
Relative Cycle Thresholds (CTs), MCP-3 ([4]; gene MCP-3): 3905
Relative Cycle Thresholds (CTs), MDC ([4]; gene MDC): 2869
Relative Cycle Thresholds (CTs), MIG ([4]; gene MIG): 3411
Relative Cycle Thresholds (CTs), MIP-1a ([4]; gene MIP-1a): 6156
Relative Cycle Thresholds (CTs), MIP-1b ([4]; gene MIP-1b): 12918
Relative Cycle Thresholds (CTs), MIP-2 ([4]; gene MIP-2): 1792
Relative Cycle Thresholds (CTs), MIP-3a ([4]; gene MIP-3a): 885
Relative Cycle Thresholds (CTs), MIP-3b ([4]; gene MIP-3b): 2030
Relative Cycle Thresholds (CTs), MMP-8 ([4]; gene MMP-8): 1505
Relative Cycle Thresholds (CTs), NOS2 ([4]; gene NOS2): 308
Relative Cycle Thresholds (CTs), TARC ([4]; gene TARC): 1505
Relative Cycle Thresholds (CTs), TCA-3 ([4]; gene TCA-3): 16
Relative Cycle Thresholds (CTs), TNF-α ([4]; gene TNF-α): 7170

Source: patent US7884083B2, “Immunomodulatory compositions, methods of making, and methods of use thereof” (Dynavax Technologies Corporation, priority 2002, dated 2011)
